{"source": "patent US20230339977A1", "about": "“SUBSTITUTED HETEROARYL COMPOUND, AND COMPOSITION AND APPLICATION THEREOF” (SUNSHINE LAKE PHARMA CO., LTD., priority 2020, published 2023)", "key": {"[1]": {"assay": "Stability in human liver microsomes", "format": "in vitro ADME", "procedure": "(§1) The stability of the compounds of the present invention in human and rat liver microsomes can be tested by the following two methods:\n(§2) Human or rat liver microsomes were incubated in polypropylene tubes in duplicate wells. A typical incubation mixture included human or rat liver microsomes (0.5 mg protein/mL), target compound (5 µM), and a total volume of 200 µL of NADPH (1.0 mM) potassium phosphate buffer (PBS, 100 mM, pH 7.4), the compound was dissolved in DMSO and diluted with PBS, the final concentration of the DMSO solution was 0.05%. Human or rat liver microsomes were incubated at 37° C. in an air-connected water bath. After pre-incubation for 3 minutes, […] was added to start the reaction. The same volume of ice-cold acetonitrile was added to terminate the reaction at different time points (0, 5, 10, 15, 30 and 60 min). Samples were stored at -80° C. until LC/MS/MS analysis.\n(§3) The linear concentration range of each target compound was determined, and then, the concentration of the target compounds in the human or rat liver microsomes incubation mixture was determined by LC/MS/MS method.\n(§4) Parallel incubations were performed using denatured microsomes as a negative control and dextromethorphan (70 µM) as a positive control. Negative control was incubated at 37° C., the reaction was terminated at different time points (0, 15 and 60 minutes); positive control was incubated at 37° C., the reaction was terminated at different time points (0, 5, 10, 15, 30 and 60 minutes). Positive and negative control samples were used in each assay to ensure the integrity of the microsomal incubation system.\n(§5) In addition, the stability data of the compounds of the present invention in human or rat liver microsomes can also be obtained from the following tests:\n(§6) Human or rat liver microsomes were incubated in polypropylene tubes in duplicate wells. A typical incubation mixture included human or rat liver microsomes (final concentration: 0.5 mg protein/mL), target compound (final concentration: 1.5 µM) and a total volume of 30 µL of K-buffer solution (containing 1.0 mM EDTA, 100 mM, pH 7.4). Compounds were dissolved in DMSO and diluted with K-buffer solution, the final concentration of DMSO was 0.2%. […]\n(§7) For each reaction, in vivo intrinsic hepatic clearance CLint is extrapolated by plotting the compound concentration (expressed as a percentage) in human or rat liver microsomal incubations as a percentage relative to time zero (ref.: Naritomi Y, Terashita S, Kimura S, Suzuki A, Kagayama A, Sugiyama Y. Prediction of human hepatic clearance from in vivo animal experiments and in vitro metabolic studies with liver microsomes from animals and humans. Drug Metabolism and Disposition 2001, 29: 1316-1324.)."}, "[2]": {"assay": "Stability in rat liver microsomes", "format": "in vitro ADME", "procedure": "as §1, §2, §3, §4, §5, §6, §7"}, "[3]": {"tested_on": "P-STAT3", "assay": "Effect of TYK2 inhibitor on P-STAT3 expression in PBMC induced by IFN-α (Table 3, P-STAT3 (h))", "format": "cell-based", "settings": "Homo sapiens; P-STAT3 by ELISA, PBMC stimulated with IFN-α 5000 U/mL", "procedure": "Whole blood was collected from healthy subjects, anticoagulated with heparin sodium, and PBMC (human peripheral blood mononuclear cells) were extracted. PBMC were seeded in 96-well culture plates at a density of 1*106/well. The initial concentration of the positive drug BMS986165 was 1000 nM, after diluting 10 times, the positive drug BMS986165 was diluted 8 concentrations by 3 times; the concentration of the other tested compounds was 333 nM. Positive wells and negative wells were added with the same volume of DMSO as the compound, and the final concentration of DMSO was 0.5%. After the compound was added, the cells were incubated at 37° C. for 1 h, and then stimulated by the addition of IFN-α at a final concentration of 5000 U/mL. An equal volume of medium was added to the negative wells and incubated for 15 min. The cells were centrifuged to remove the supernatant, and lysed, and the P-STAT3 was measured according to the instructions of the ELISA kit, the absorbance was read at 450 nm, and the IC50 value or inhibition rate was calculated.\nCTLL-2, P-STAT3 and TF-1 cells were seeded in a 96-well culture plate at a density of 20,000/well with 90 µL per well, and the blank well was an equal amount of complete medium. […]"}, "[4]": {"tested_on": "TF-1 cells", "assay": "Inhibitory effect on TF-1 cell proliferation", "format": "cell-based", "settings": "Homo sapiens, alamar blue, read-out: IC50 (nM) TF-1 (h)", "procedure": "TF-1 cells were seeded in a 96-well culture plate at a density of 20,000/well with 80 µL per well, the blank well was an equal amount of complete medium, and 10 µL of the compound dilution solution was added to the 96-well plate B1-11, C1-11, E1-11, F1-11, positive and negative wells were added with 5% DMSO medium equal to the volume of the compound, and the final concentration of DMSO was 0.5%. After 30 min, GM-CSF with a final concentration of 2 ng/mL was added to rows B, C, and D (positive wells), and the remaining wells (rows E, F, and G) were added with the same volume of medium as cytokines (negative wells). After incubation for 44 h at 37° C. in 5% CO2, alamar blue was added, the plate was incubated for 4 h, the fluorescence intensity of each well under the conditions of […], 580 nm wavelength was measured, and the IC50 value was calculated.\nCTLL-2, P-STAT3 and TF-1 cells were seeded in a 96-well culture plate at a density of 20,000/well with 90 µL per well, and the blank well was an equal amount of complete medium. 10 ul of different compound dilutions were added to each plate row BC, DE, and FG, and 5% DMSO medium with equal volume of the compound was added to positive wells and negative wells, and the final concentration of DMSO was 0.5%. […]"}, "[5]": {"settings": "pH 7.4, in vivo intrinsic hepatic clearance extrapolated"}}, "data": [{"smiles": "CC(=O)Nc1cc2c(-c3ccc4c(n3)C3(CCOC3)OC4)cn(C)c2cn1", "note": "(stereo not drawn) [Example 2, N-(3-(4,5-Dihydro-2H,5′H-Spiro[Furan-3,7′-Furo[3,4-b]Pyridin]-2′-yl)-1-Methyl-1H-Pyrrolo[2,3-c]Pyridin-5-yl)Acetamide]", "values": [{"measurement": "half-life", "setting": "[1]; human, pH 7.4, read-out: Human T½", "result": 0.804, "unit": "h"}, {"measurement": "CLint scaled", "setting": "[1]; [5]", "result": 36, "unit": "mL/min/kg"}, {"measurement": "CLint scaled", "setting": "[2]; [5]", "result": 15.4, "unit": "mL/min/kg"}, {"measurement": "half-life", "setting": "[2]; rat, pH 7.4, read-out: Rat T½", "result": 2.69, "unit": "h"}, {"measurement": "IC50", "setting": "[3]", "result": 95.8, "unit": "nM"}, {"measurement": "IC50", "setting": "[4]", "result": 7560, "unit": "nM"}]}]}
